Patent publication US5919464A, “Treatment of aberrant cellular states with biomodulators” (University of New Mexico, priority 1993, dated 1999)

Columns and labels:
[1] = system: canine glioma cells; assay: in vivo inhibition of canine glioma in nude rats, compound IIc'
Experimental: Fifty four nude rats (Harlan) were injected in the right flank with 5×10^6 canine glioma cells. Animals at the time of injection were between 52 and 63 days old and weighed approximately 200 g. The rats were divided into 7 groups, each group having a total number of 7 rats except for the control group, which totalled 12 animals. Compound IIc' was administered to the experimental animals at one of the following doses for each experimental group: 100 μg/kg, 10 μg/kg, 1 μg/kg, 0.1 μg/kg, 0.01 μg/kg and 0.001 μg/kg (phosphate buffer saline, M, W, F, I.P.). The control animals were injected with PBS (phosphate buffered saline) only. The volume of each injection was 100 μl. The injections of drug were simultaneously begun with injection of tumor cells. The animals were injected with the appropriate dosage of drug ([…]) by I.P. injection and tumor length, width and depth were measured using caliphers each Monday, Wednesday and Friday (M, W, F) morning for approximately 9 weeks. Each point on the graphs represents the total of all rats for each group. […] The data were normalized for the greater number of control animals by multiplying the total tumor volume for the control animals by 7/12.

[2] = system: CG tumor; assay: chromium-release cell-mediated lympholysis vs. CG tumor in a dog; type: in vivo
From the text: Cellular immune response reflected the results reported in III, 1 above. […] This also is in the absence of CG antigen exposure. […] Thus, both cellular and humoral immunity appear to be modulatable in the absence of antigen by the compounds of the instant invention.

[3] = system: human peripheral blood leukocytes (HPBLs); assay: HPBL 3H-thymidine incorporation (proliferation); type: cell-based; design: reference not given here
From the text: (§1) C. […] This model is used to correlate the effects of biomodulators on the expression of immune response in vitro. The plaque assay disclosed in this reference is used for the determination of the effect of biomodulators on the specificity, class and subclass of individual clones.
(§2) A. Purification of PWM and separation of the differentiative and proliferative functions Pokeweed Mitogen (PWM) and three of its isomitogens, Pa-1 and Pa-5, which are primarily differentiative in nature, and Pa-2 which is primarily proliferative, were prepared according to the method of Waxdal, supra, except that the iso-mitogens were finally purified by isoelectric focusing.

[4] = system: canine glioma (CG) specific IgG antibody; assay: CG-specific antibody (IgG) titer in a dog; type: in vivo
[5] = system: human peripheral blood leukocytes (HPBLs); assay: HPBL plaque forming cell (PFC) assay / IgG production in vitro (differentiation); type: cell-based; conditions: for Inhibitory Concentration (inhibiting nonspecific IgG production below normal production) / Stimulation of IgG Production, Concentration / Stimulation of IgG Production, Percent: HPBL; for Stimulation of IgG Production, Percent: at the stimulating concentration
From the text: as §1, §2
Human peripheral blood leukocytes were cultured in a standard tissue culture medium. Aliquots of these cultured cells (1,000,000 cells/ml medium) were cultured for 6 hours, and the specified amount of Formula II compound was added; the cells were then cultured for an additional 90 hours. Sheep red blood cells (SRBC) conditioned with class-specific (IpG) goat anti-human antiserum (1:400) for 2 hours; then guinea pig complement (2%) for 2 hours were conjugated to Protein A as described in detail in Radioimmunoimaging and Radioimmunotherapy, Eds.

[6] = system: canine glioma tumors; assay: canine glioma tumor growth in nude rats, various biomodulators; type: in vivo; conditions: in words
Experimental: C57 BL/6 mice were injected I.M. with B-16 melanoma cells, maintained in culture in the right flank or shoulder. Tumor growth was monitored on a daily basis by physical measurement and by MRI/MRS on a weekly basis. Treatment routes were via intraperitoneal injection using various CAD between 1 μg and 0.001 μg per animal on a M, W, F injection schedule. The animals were terminated by CO2 when the tumors had become 1.0 cm in diameter. Lung metastases were counted.
Various biomodulators were tested in vivo for their effects on canine glioma tumors established and monitored as above for mice, but in nude rats. […] FIGS. 29-30 show the progression of the tumors over time with treatment with, respectively, PWM, Sw, CAD, HHD-2, HHD-3, HHD-4, and HHD-7.

[7] = system: P-815 mastocytoma cells; assay: P-815 cytotoxic T lympholysis / cell mediated lympholysis (CML), spleen cells treated in culture; type: cell-based, mouse; conditions: hydrocortisone 2 mg given day -2; hydroxyurea 10^-5M; in words
Experimental: In this case the P-815 is injected into the H-2 incompatible host and in the Brunner and Cerotini model an antigen specific lympholysis event occurs with an optimum on day 11 at an effector/target ratio of 100:1 with 30% lysis If the spleens of the injected animals are removed on day three there is no observable cytotoxicity; however, if the spleen cells are treated with biomodulator (in this case PWM at 100 ng) there is an enormous increase in the cytotoxicity event. […] The slope represents a measure of the efficiency of kill and in the biomodulator treated cells is approximately 1.6 versus 0.24 for the control antigen driven response on day 11. This represents a seven fold increase in simple cytotoxicity efficiency. Again this is concentration dependent and the kinetics of the response are such that if the cells are left in culture for times which approximate the in vivo 11 day optimum then the lysis values approach the untreated controls. […]
P 815 mastocytoma cells are grown in culture or as an ascites (DBA H-2/d) and injected into C57BL/6J mice (H-2/b). […] The specificity of the response is assessed by testing the cytotoxicity against EL-4 cells ([…]) which are NK insensitive and histoincompatible with the original target. […]
Seven effector/target ratios are tested and the percent lysis calculated. […]

[8] = molecular target: T1, HMGCoA reductase (Rattus norvegicus, UniProt P51639); assay: inhibition of rat liver HMGCoA reductase activity; type: biochemical; design: from tissue; host or cells: rat liver; conditions: rat liver
T1 sequence (P51639 1-887): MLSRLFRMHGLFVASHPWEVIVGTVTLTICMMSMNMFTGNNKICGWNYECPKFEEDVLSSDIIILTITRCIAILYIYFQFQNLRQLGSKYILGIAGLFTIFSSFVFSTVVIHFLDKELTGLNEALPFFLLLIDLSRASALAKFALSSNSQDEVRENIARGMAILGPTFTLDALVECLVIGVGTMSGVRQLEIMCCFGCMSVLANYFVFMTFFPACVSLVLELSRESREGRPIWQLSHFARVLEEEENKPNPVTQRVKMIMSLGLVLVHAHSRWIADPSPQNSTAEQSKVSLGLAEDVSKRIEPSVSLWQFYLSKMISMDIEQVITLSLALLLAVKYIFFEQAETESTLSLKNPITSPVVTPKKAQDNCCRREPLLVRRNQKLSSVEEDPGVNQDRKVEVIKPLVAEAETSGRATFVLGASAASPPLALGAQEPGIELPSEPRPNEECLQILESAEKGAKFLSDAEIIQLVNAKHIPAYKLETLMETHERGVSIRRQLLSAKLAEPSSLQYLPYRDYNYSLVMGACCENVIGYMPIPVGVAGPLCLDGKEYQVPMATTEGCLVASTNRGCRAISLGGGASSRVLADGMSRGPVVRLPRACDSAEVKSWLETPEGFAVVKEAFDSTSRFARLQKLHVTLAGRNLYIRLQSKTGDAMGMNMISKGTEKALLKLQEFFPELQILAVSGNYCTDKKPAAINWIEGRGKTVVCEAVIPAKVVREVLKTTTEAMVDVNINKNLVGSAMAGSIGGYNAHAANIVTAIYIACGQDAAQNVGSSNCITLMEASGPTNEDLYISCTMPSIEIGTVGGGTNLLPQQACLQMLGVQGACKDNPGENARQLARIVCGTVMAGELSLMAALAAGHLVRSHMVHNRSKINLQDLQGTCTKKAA
From the text: reductase activity; data obtained according to Example IA.

[9] = system: canine glioma; assay: in vivo inhibition of canine glioma in dog brain (NMR)
Experimental: Canine glioma was implanted surgically into the brains of four outbred dogs (2×10^6 cells). This procedure normally causes death by tumor growth in 14-28 days.
Simultaneous with implantation, the dogs were each placed on a regimen of compounds according to the invention, Compounds IIa', IIe' and TF004 in various dosages were administered on alternate days (M, W, F) by I.P. injection in phosphate buffered saline.
Tumor progress was assessed at weekly intervals by NMR, employing GdDTPA as imaging agent. This method illuminates vascularization at the surface of the tumor, and provides images which correlate well with neuropathological observations.

[10] = 1 ng/kg I.P., treatment begun on day of implantation

CC(C)OC(=O)C[C@H](O)C[C@@H](O)/C=C/c1c(C(C)C)nc(-c2ccccc2)n1-c1ccc(F)cc1 [Compound IIc']
optimal dose in vivo, equivalent concentration with uniform distribution ([1]; 100 ng/kg): 250 pM
cytostatic activity at other doses ([1]; 10 and 100 μg/kg, 1 ng/kg, in words): Little or no cytostatic activity
most effective dosage for inhibition of canine glioma ([1]; I.P., M, W, F): 100 ng/kg
slope M of Y = MX + B (linear regression of toxicity) ([2]; December 14, 1987): 0.05
slope M of Y = MX + B (linear regression of toxicity) ([2]; February 9, 1988): 0.35
slope M of Y = MX + B (linear regression of toxicity) ([2]; February 17, 1988): 0.75
slope M of Y = MX + B (linear regression of toxicity) ([2]; March 31, 1988): 0.05
CML ([2]; additional 2 months of administration, no CG antigen, in words): significant increase in CML
CG-specific CML ([2]; after 14 days, I.P., M, W, F, in words): only baseline levels of CG-specific CML were present
Proliferation ((3H) thymidine incorporation into DNA) [3]: 1.2
antibody titer versus control without antigen ([4]; in words): titers of antibody increased over the control antibody titer significantly
IC-50% Titer (Anti-CG) ([4]; treated 2+ months, tumor regressed): Baseline Values
Inhibitory Concentration (inhibiting nonspecific IgG production below normal production) [5]: none found
Stimulation of IgG Production, Concentration [5]: 100 pM
optimal dose in vitro, immune stimulation ([5]; HPBL assay): 100 pM
Stimulation of IgG Production, Percent [5]: 6200%

CC(C)OC(=O)C[C@H](O)C[C@H](O)/C=C/c1c(C(C)C)nc(-c2ccccc2)n1-c1ccc(F)cc1 [HHD-3]
canine glioma tumor regression in nude rats [6]: showed no regression effect, just delay of the control growth pattern

CC(C)OC(=O)C[C@H](O)C[C@@H](O)/C=C/c1c(C(C)C)nc(-c2ccccc2)n1-c1ccc(F)cc1 [HHD-7]
canine glioma tumor regression in nude rats [6]: showed the best regression

C[C@]12CCC(=O)C=C1CC[C@@H]1[C@@H]2[C@@H](O)C[C@@]2(C)[C@H]1CC[C@]2(O)C(=O)CO [Hydrocortisone]
influence on the biomodulator effect on CML [7]: reduced the biomodulator effect

NC(=O)NO [Hydroxyurea]
influence on the biomodulator effect on CML [7]: does not inhibit the biomodulator effect on CML

CC(C)OC(=O)C[C@@H](O)C[C@@H](O)/C=C/c1c(C(C)C)nc(-c2ccccc2)n1-c1ccc(F)cc1 [IIa]
IC50 [8]: 3150 nM
Proliferation ((3H) thymidine incorporation into DNA) [3]: 0.98
Inhibitory Concentration (inhibiting nonspecific IgG production below normal production) [5]: none found
Stimulation of IgG Production, Concentration [5]: 200 pM
Stimulation of IgG Production, Percent [5]: 1700%

CC(C)OC(=O)C[C@@H](O)C[C@H](O)/C=C/c1c(C(C)C)nc(-c2ccccc2)n1-c1ccc(F)cc1 [IIb]
IC50 [8]: 1350 nM
Proliferation ((3H) thymidine incorporation into DNA) [3]: 1.0
Inhibitory Concentration (inhibiting nonspecific IgG production below normal production) [5]: none found
Stimulation of IgG Production, Concentration [5]: 200 pM
Stimulation of IgG Production, Percent [5]: 1700%

CC(C)OC(=O)C[C@H](O)C[C@H](O)/C=C/c1c(C(C)C)nc(-c2ccccc2)n1-c1ccc(F)cc1 [IId, reference compound]
IC50 [8]: 2 nM
Proliferation ((3H) thymidine incorporation into DNA) [3]: 0.66
Stimulation of IgG Production, Concentration [5]: 100000 pM
Stimulation of IgG Production, Percent [5]: 320%

CC(C)c1nc(-c2ccccc2)n(-c2ccc(F)cc2)c1/C=C/[C@H](O)C[C@H](O)CC(=O)O [TF-002]
day by which tumor regressed ([9]; pre-treated, 10 ng/kg I.P. M, W, F): ≤ 19 days
later tumor status ([9]; pre-treated, 10 ng/kg, in words): free of tumor

CC(C)c1c(/C=C/C(O)CC(O)CC(=O)O)n(-c2ccc(F)cc2)c2ccccc12 (stereo not shown) [TF-004]
day of complete regression [9, 10]: ≤ 21 days
day of substantial regression [9, 10]: ≤ 15 days
day of complete regression ([9]; treatment begun on Day 11): ≤ 30 days
day of substantial regression ([9]; treatment begun on Day 11): ≤ 21 days
